Data: US11446238B2, “Injectable dendrimer hydrogel nanoparticles” (Wayne State University, priority 2010, dated 2022)

Test system: Red blood cell (RBC)
Assay: Red blood cell lysis (hemolysis)
Settings: 1% Triton X-100, positive control

Triton X-100
hemolysis: 100%
